This note sets out measurements from patent US11525063B2, “Fluorescent oxygen sensing ink” (The Board of Trustees of Western Michigan University, priority 2018, dated 2022).

The subject of data set [1] is L-929 mouse fibroblast cells. As to the method:
(§1) All samples were ≤0.5 mm thick and prepared as 8 mm-diameter discs (surface area of 0.50 cm^2). […] An aliquot was counted using trypan blue, and then cells were re-suspended in complete growth medium at a density of 1×10^5 cells/ml. […] After 24 h, the culture medium was removed and replaced with 100 μl of extractant. Some wells received sodium dodecyl sulfate (0 to 400 μM in EMEM; positive controls), low-density polyethylene extract (1.25 cm^2 LDPE/ml EMEM; negative control), or complete growth medium alone. Cells were then cultured for an additional 24 h. Images (mag. of 100× and 200×) of cell cultures were recorded by photo microscopy using a Olympus CK40 inverted microscope and Insight2 SPOT camera (Diagnostic Imaging) and the number of attached and dead cells were manually counted at a later time using ImageJ (NIH). […] Subsequently, cells in culture plates were washed once with Hank's Balanced Salt Solution and metabolic activity was measured by incubating cells with 100 μl of WST-1 cell proliferation reagent (Roche Diagnostics) for up to 4 h at 37° C. To determine cytotoxicity, absorbance of the medium in wells was measured at 450 nm after 2 and 4 h using a microplate reader (PHERAstar) and was corrected using absorbance measurements at 630 nm and using blanks. To check for mycoplasma contamination of the cultures, medium was saved and tested using the luminescent MycoAlert Plus mycoplasma detection kit (Lonza).
Absorbance is proportional to the amount of formazan product generated by the metabolic activity of cells. Thus, lower absorbance values correlate with increased cytotoxicity.
An aliquot was counted using trypan blue, and then cells were re-suspended in complete growth medium at a density of 1×10^5 cells/ml. […] After 24 h, the culture medium was removed and replaced with 100 μl of extractant. Some wells received sodium dodecyl sulfate (SDS; 0 to 400 μM in EMEM; positive controls), low-density polyethylene extract (1.25 cm^2 LDPE/ml EMEM; negative control) or complete growth medium alone. Cells were then cultured for an additional 24 h. Subsequently, cells in culture plates were washed once with HBSS and metabolic activity was measured by incubating cells with 100 μl of WST-1 cell proliferation reagent (Roche Diagnostics) for up to 4 h at 37° C.
To determine cytotoxicity, absorbance of the medium in wells was measured at 450 nm after 2 and/or 4 h using a microplate reader (PHERAstar) and was corrected using absorbance measurements at 630 nm and using blanks. Absorbance levels are proportional to the metabolic activity of cells and therefore inversely related to cytotoxicity. To check for mycoplasma contamination of the cultures, medium was saved and tested using the luminescent MycoAlert Plus mycoplasma detection kit (Lonza). Statistical significance was determined using analysis of variance and Tukey-Kramer post-test.

In data set [2] the test system is L-929 mouse fibroblast cells. Conditions: 150 μM SDS in EMEM, 24 h. How it is done: as §1, with “To check for mycoplasma contamination of the cultures, medium was saved and tested using the luminescent MycoAlert Plus mycoplasma detection kit (Lonza).” left out
The nature of data set [3]: Effect of sterilization process (H2O2 vapor treatment) on emission peak. The format is physicochemical. As to the method: The fluorescent properties of two materials being encapsulated in both poly-styrene and PDMS (polydimethylsiloxane) polymer binder materials were measured to determine the suitability of the materials in an oxygen sensing system. […] Then 20 μL of mixed solution was cast onto filter paper to form a patch with a diameter of 8 mm. The patch was left in the nitrogen chamber for drying for 24-hours before testing. The PDMS encapsulated sensing patches were fabricated by firstly depositing dye solution onto the filter paper. PDMS was then added to the filter paper after the removal of the solvent. The same amount of dye was used for all samples. The fluorescence spectrum was measured using a UV spectrophotometer. A zero oxygen solution was prepared by nitrogen bubbling a 0.15 mol/L Na2SO3 solution for 30 minutes.

Molecules are shown by their SMILES. Read-outs that look alike come from different tables or passages of the source.

For the molecule `CCCCCCCCCCCCOS(=O)(=O)[O-].[Na+]` [SDS, sodium dodecyl sulfate, reference compound], in data set [1] (300 μM SDS in EMEM, 24 h), the Mean absorption reading came out at 0. The “Concentrations of SDS that were cytotoxic” value in data set [1] (mouse) is “above 200 μM”. This molecule also yielded a Morphology score in data set [2] of 2.

With `[Cl-].[Cl-].[Ru+2].c1ccc(-c2ccnc3c2ccc2c(-c4ccccc4)ccnc23)cc1.c1ccc(-c2ccnc3c2ccc2c(-c4ccccc4)ccnc23)cc1.c1ccc(-c2ccnc3c2ccc2c(-c4ccccc4)ccnc23)cc1` [Ru(dpp)3Cl2, Tris(4,7-diphenyl-1,10-phenanthroline) ruthenium II dichloride], the “cytotoxicity of extract (conclusion in words)” value is recorded as “considerable cytotoxicity” in data set [1] (cells treated 24 h with extract of Sterrad-sterilized sample) and “cytotoxic” in data set [1] (cells treated 24 h with extract of Sterrad-sterilized sample, listed as ruthenium alone on paper). Further, the “Mean absorbance (corrected, 450 nm)” value in data set [1] (cells treated 24 h with extract of Sterrad-sterilized sample, lower absorbance = more cytotoxic) is 0.318. In addition, the “metabolic activity relative to cells cultured in EMEM alone” value in data set [1] (cells treated 24 h with extract, below 70% considered cytotoxic) was found to be 38.4%. Moreover, the “stability to H2O2 vapor treatment” value in data set [3] is recorded as “more vulnerable”. Besides, the “Emission peak After Sterilization” value in data set [3] (after H2O2 vapor treatment) was “No emission peak detected”. In data set [3] (before H2O2 vapor treatment), the “Emission peak Before Sterilization” value is given as “Emission peak detected”.
